According to patent US20090156466A1, “Characterization of a MEKK binding site and uses thereof” (priority 2007, published 2009):

Key:
MEKK3 = target: T1, MEKK3 (Homo sapiens, UniProt Q99759); assay: MEKK3 mobility band shift on high-ratio acrylamide:bis-acrylamide SDS-PAGE of lysates from treated cells; assay type: cell-based; settings: MEKK3 expressed in treated HEK293 cells; data not shown
T1 construct: expressed in transfected cells; host or cells: HEK 293
T1 sequence (Q99759 1-626): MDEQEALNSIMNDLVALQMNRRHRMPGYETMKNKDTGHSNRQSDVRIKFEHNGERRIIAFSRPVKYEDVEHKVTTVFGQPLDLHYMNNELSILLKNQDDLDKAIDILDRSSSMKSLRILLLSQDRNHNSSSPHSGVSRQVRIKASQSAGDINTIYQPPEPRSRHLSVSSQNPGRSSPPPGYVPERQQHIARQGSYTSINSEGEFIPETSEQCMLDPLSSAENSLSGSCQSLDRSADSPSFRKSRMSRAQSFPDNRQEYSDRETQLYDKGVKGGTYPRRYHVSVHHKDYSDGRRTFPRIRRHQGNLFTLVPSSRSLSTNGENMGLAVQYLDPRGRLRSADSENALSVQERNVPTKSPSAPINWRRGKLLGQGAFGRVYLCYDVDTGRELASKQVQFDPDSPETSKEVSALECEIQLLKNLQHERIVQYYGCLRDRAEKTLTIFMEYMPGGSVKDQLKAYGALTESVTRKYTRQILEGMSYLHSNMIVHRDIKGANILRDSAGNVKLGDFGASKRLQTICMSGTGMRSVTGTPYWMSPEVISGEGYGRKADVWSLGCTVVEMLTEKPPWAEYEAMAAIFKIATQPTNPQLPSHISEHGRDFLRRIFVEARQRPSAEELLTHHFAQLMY

MEKK3-14-3-3 interaction = target: T2, MEKK3-14-3-3 interaction (Homo sapiens, UniProt Q99759); assay: Co-immunoprecipitation of 14-3-3 with FLAG-MEKK3 from HEK 293 cells treated with kinase inhibitor; assay type: cell-based; settings: HEK 293 cells with wt MEKK3; 1 μM, 5 μM or 10 μM for 20 min prior to solubilization
T2 construct: expressed in transfected cells; host or cells: HEK 293
T2 sequence (Q99759 1-626): T1 sequence (Q99759 1-626)
Description: A, B. HEK 293 cells were transfected with wildtype (wt) MEKK3, K391M MEKK3, or S526A MEKK (shown in B) or empty vector. After 24 hours, cells were solubilized, and FLAG-MEKK3 was immunoprecipitated with anti-FLAG M2-conjugated agarose. Proteins were resolved by SDS-PAGE, and immunoblotted with anti-FLAG antibody or anti-14-3-3β antibody (which recognizes the family of 14-3-3 proteins). C. HEK 293 cells were transfected with wt MEKK3 for 24 hours, and then treated with staurosporine (1 μM, 5 μM, or 10 μM) for 20 min prior to solubilization. MEKK3 and 14-3-3 were detected as in A.
HEK 293 cells were plated onto 35-mm-diameter dishes at 80% confluency, and transfected with 100 to 500 ng of cDNA using Lipofectamine-2000 (Gibco-BRL) following the manufacturer's protocol. Transfection medium was removed and replaced with complete DMEM overnight.
Cells were lysed in 50 mM Tris-HCl, pH 7.4, 1% Triton X-100, 25 mM NaF, 25 mM β-glycerophosphate, 5 mM EDTA, 0.05% SDS, 1.0 μg/ml microcystin LR, and protease inhibitors. […] FLAG was stained with anti-FLAG M2 mouse monoclonal (Sigma), and 14-3-3 isoforms were detected with anti-14-3-3β (H8; Santa Cruz Biotechnology).
The family of 14-3-3 proteins was detected by immunoblotting with a pan-specific 14-3-3 antibody raised against a common sequence present in all family members. […]

SMILES	MEKK3 band shift (mobility shift on SDS-PAGE) (MEKK3)	MEKK3-14-3-3 interaction (14-3-3 co-immunoprecipitation) (MEKK3-14-3-3 interaction)
N#CC(=C(/N)Sc1ccccc1N)/C(C#N)=C(\N)Sc1ccccc1N [U0126]	had no effect on mobility shift	–
CN[C@@H]1C[C@H]2O[C@@](C)([C@@H]1OC)n1c3ccccc3c3c4c(c5c6ccccc6n2c5c31)C(=O)NC4 [staurosporine]	reduced the MEKK3 band shift	disrupted MEKK3-14-3-3 interaction
